{"source": "patent US20230022157A1", "about": "(Achillion Pharmaceuticals, Inc., priority 2018, published 2023)", "data": [{"biological_target": "T1, Human Factor D (Homo sapiens, UniProt P00746)", "T1 construct": "purified from human serum; purchased Complement Technology, Inc; host or cells: human serum (natural protein, not recombinant)", "T1 sequence (P00746 26-253)": "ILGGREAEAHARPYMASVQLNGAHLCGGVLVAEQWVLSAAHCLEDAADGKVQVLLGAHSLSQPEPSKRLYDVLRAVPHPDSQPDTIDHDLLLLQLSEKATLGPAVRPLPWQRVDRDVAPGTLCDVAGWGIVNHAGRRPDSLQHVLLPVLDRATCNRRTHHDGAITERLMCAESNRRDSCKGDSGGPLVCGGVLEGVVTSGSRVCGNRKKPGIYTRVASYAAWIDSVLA", "experiment": "Human Factor D Assay", "type": "biochemical", "conditions": "Human Factor D 80 nM, substrate Z-L-Lys-SBzl, assay of Example 3; read-out: IC50 (Stars)", "method_in_brief": "(§1)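 Serum-purified human factor D (80 nM final) preincubated 5 min at room temperature with test compound in 50 mM Tris, 1M NaCl, pH 7.5. Z-L-Lys-SBzl substrate and DTNB then added, each at 100 μM final. IC50 from nonlinear regression of reaction rate against compound concentration.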", "units": {"IC50": "µM"}, "values": [{"smiles": "CC(=O)c1nn(CC(=O)N2[C@H](C(=O)N[C@H](C)CC(C)C)C[C@@]3(C)C[C@@H]23)c2ccc(-c3cnc(C)nc3)cc12", "note": "[Compound 18, (1R,3S,5R)-2-(2-(3-Acetyl-5-(2-methylpyrimidin-5-yl)-1H-indazol-1-yl)acetyl)-5-methyl-N—((R)-4-methylpentan-2-yl)-2-azabicyclo[3.1.0]hexane-3-carboxamide]", "IC50": "< 1"}, {"smiles": "CC(=O)c1nn(CC(=O)N2C[C@H](F)C[C@H]2C(=S)Nc2cccc(Br)n2)c2ccc(-c3cnc(C)nc3)cc12", "note": "[Compound 36, (2S,4R)-1-(2-(3-Acetyl-5-(2-methylpyrimidin-5-yl)-1H-indazol-1-yl)acetyl)-N-(6-bromopyridin-2-yl)-4-fluoropyrrolidine-2-carbothioamide]", "IC50": "< 1"}]}, {"biological_target": "T1, Human Factor D", "experiment": "Human Factor D Assay", "type": "biochemical", "conditions": "Human Factor D 80 nM, substrate Z-L-Lys-SBzl; Table 2; read-out: IC50 (Stars)", "method_in_brief": "as §1", "units": {"IC50": "µM"}, "values": [{"smiles": "CC(=O)c1cn(CC(=O)N2[C@H](C(=O)Nc3nc(C(F)(F)F)ccc3C)C[C@@]3(C)C[C@@H]23)c2c(C)cc(-c3cnc4cc(F)nn4c3)cc12", "note": "[Compound 225, (1R,3S,5R)-2-(2-(3-acetyl-5-(2-fluoropyrazolo[1,5-a]pyrimidin-6-yl)-7-methyl-1H-indol-1-yl)acetyl)-5-methyl-N-(3-methyl-6-(trifluoromethyl)pyridin-2-yl)-2-azabicyclo[3.1.0]hexane-3-carboxamide]", "IC50": "< 1"}, {"smiles": "CC(=O)c1nn(CC(=O)N2[C@H](C(=O)N[C@@H](c3ccccc3)C(F)(F)F)C[C@@]3(C)C[C@@H]23)c2c(C)cc(-c3cnc(C)nc3)cc12", "note": "[Compound 85, (1R,3S,5R)-2-{2-[3-acetyl-7-methyl-5-(2-methylpyrimidin-5-yl)indazol-1-yl]acetyl}-5-methyl-N-[(1S)-2,2,2-trifluoro-1-phenylethyl]-2-azabicyclo[3.1.0]hexane-3-carboxamide]", "IC50": "< 1"}, {"smiles": "CC(=O)c1cn(CC(=O)N2[C@H](C(=O)Nc3cncc(Br)n3)C[C@@]3(C)C[C@@H]23)c2c(C)cc(-c3cnc(C(C)O)nc3)cc12", "note": "(stereo partly drawn) [Compound 159, (1R,3S,5R)-2-(2-(3-acetyl-5-(2-(1-hydroxyethyl)pyrimidin-5-yl)-7-methyl-1H-indol-1-yl)acetyl)-N-(6-bromopyrazin-2-yl)-5-methyl-2-azabicyclo[3.1.0]hexane-3-carboxamide]", "IC50": "< 1"}, {"smiles": "CC(=O)c1nn(CC(=O)N2[C@H](C(=O)Nc3nc(Br)ccc3C3CC3)C[C@@]3(C)C[C@@H]23)c2c(C)cc(-c3cnc(CO)nc3)cc12", "note": "[Compound 66, (1R,3S,5R)-2-(2-(3-acetyl-5-(2-(hydroxymethyl)pyrimidin-5-yl)-7-methyl-11H-indazol-1-yl)acetyl)-N-(6-bromo-3-cyclopropylpyridin-2-yl)-5-methyl-2-azabicyclo[3.1.0]hexane-3-carboxamide]", "IC50": "< 1"}, {"smiles": "CC(=O)c1nn(CC(=O)N2[C@H]3CC[C@H](C3)[C@H]2C(=O)Nc2nc(Br)c(F)cc2C)c2c(C3CC3)cc(-c3cnc(C)nc3)cc12", "note": "[Compound 122, (1S,3S,4R)-2-(2-(3-Acetyl-7-cyclopropyl-5-(2-methylpyrimidin-5-yl)-1H-indazol-1-yl)acetyl)-N-(6-bromo-5-fluoro-3-methylpyridin-2-yl)-2-azabicyclo[2.2.1]heptane-3-carboxamide]", "IC50": "< 1"}, {"smiles": "CC(=O)c1nn(CC(=O)N2C[C@H](F)C[C@H]2C(=O)Nc2cccc(Br)n2)c2c(C)cc(-c3cnc(C(C)O)nc3)cc12", "note": "(stereo partly drawn) [Compound 179, (2S,4R)-1-(2-(3-acetyl-5-(2-(1-hydroxyethyl)pyrimidin-5-yl)-7-methyl-1H-indazol-1-yl)acetyl)-N-(6-bromopyridin-2-yl)-4-fluoropyrrolidine-2-carboxamide]", "IC50": "< 1"}, {"smiles": "CC(=O)c1nn(CC(=O)N2[C@H](C(=O)Nc3nc(Br)c(F)cc3C)C[C@@]3(C)C[C@@H]23)c2c(C)cc(-c3cnc(C(C)(C)O)nc3)cc12", "note": "[Compound 68, (1R,3S,5R)-2-(2-(3-acetyl-5-(2-(2-hydroxypropan-2-yl)pyrimidin-5-yl)-7-methyl-1H-indazol-1-yl)acetyl)-N-(6-bromo-5-fluoro-3-methylpyridin-2-yl)-5-methyl-2-azabicyclo[3.1.0]hexane-3-carboxamide]", "IC50": "< 1"}, {"smiles": "CC(=O)c1cn(CC(=O)N2[C@H](C(=O)Nc3nc(Br)ccc3C)C[C@@]3(C)C[C@@H]23)c2c(C)cc(-c3cnc4cc(C)nn4c3)cc12", "note": "[Compound 198, (1R,3S,5R)-2-(2-(3-acetyl-7-methyl-5-(2-methylpyrazolo[1,5-a]pyrimidin-6-yl)-1H-indol-1-yl)acetyl)-N-(6-bromo-3-methylpyridin-2-yl)-5-methyl-2-azabicyclo[3.1.0]hexane-3-carboxamide]", "IC50": "< 1"}, {"smiles": "CC(=O)c1cn(CC(=O)N2[C@H](C(=O)Nc3nc(Br)ccc3C)C[C@@]3(C)C[C@@H]23)c2c(C)cc(-c3cnc4cc(C5CC5)nn4c3)cc12", "note": "[Compound 195, (1R,3S,5R)-2-(2-(3-acetyl-5-(2-cyclopropylpyrazolo[1,5-a]pyrimidin-6-yl)-7-methyl-1H-indol-1-yl)acetyl)-N-(6-bromo-3-methylpyridin-2-yl)-5-methyl-2-azabicyclo[3.1.0]hexane-3-carboxamide]", "IC50": "< 1"}, {"smiles": "CC(=O)c1cn(CC(=O)N2[C@H](C(=O)Nc3nc(C(F)(F)F)ccc3C)C[C@@]3(C)C[C@@H]23)c2c(C)cc(-c3cnc(CF)nc3)cc12", "note": "[Compound 220, (1R,3S,5R)-2-(2-(3-acetyl-5-(2-(fluoromethyl)pyrimidin-5-yl)-7-methyl-1H-indol-1-yl)acetyl)-5-methyl-N-(3-methyl-6-(trifluoromethyl)pyridin-2-yl)-2-azabicyclo[3.1.0]hexane-3-carboxamide]", "IC50": "< 1"}, {"smiles": "CC(=O)c1cn(CC(=O)N2[C@H](C(=O)Nc3cncc(Br)n3)C[C@@]3(C)C[C@@H]23)c2c(C)cc(-c3cnc(CF)nc3)cc12", "note": "[Compound 218, (1R,3S,5R)-2-(2-(3-acetyl-5-(2-(fluoromethyl)pyrimidin-5-yl)-7-methyl-1H-indol-1-yl)acetyl)-N-(6-bromopyrazin-2-yl)-5-methyl-2-azabicyclo[3.1.0]hexane-3-carboxamide]", "IC50": "1 to 10"}, {"smiles": "CC(=O)c1cn(CC(=O)N2C[C@H]3C[C@H]3[C@H]2C(=O)Nc2nc(Br)c(F)cc2C)c2c(C3CC3)cc(-c3cnc(C)nc3)cc12", "note": "[Compound 163]", "IC50": "< 1"}, {"smiles": "CC(=O)c1nn(CC(=O)N2C[C@H]3C[C@H]3[C@H]2C(=O)Nc2cncc(Br)n2)c2c(C)cc(-c3cnc(CO)nc3)cc12", "note": "[Compound 74, (1R,2S,5S)-3-(2-(3-acetyl-5-(2-(hydroxymethyl)pyrimidin-5-yl)-7-methyl-11H-indazol-1-yl)acetyl)-N-(6-bromopyrazin-2-yl)-3-azabicyclo[3.1.0]hexane-2-carboxamide]", "IC50": "< 1"}, {"smiles": "CC(=O)c1nn(CC(=O)N2C[C@H]3C[C@H]3[C@H]2C(=O)Nc2nc(Br)ccc2C)c2c(C)cc(-c3cnc(CO)nc3)cc12", "note": "[Compound 61, (1R,2S,5S)-3-(2-(3-acetyl-5-(2-(hydroxymethyl)pyrimidin-5-yl)-7-methyl-11H-indazol-1-yl)acetyl)-N-(6-bromo-3-methylpyridin-2-yl)-3-azabicyclo[3.1.0]hexane-2-carboxamide]", "IC50": "< 1"}, {"smiles": "CC(=O)c1cn(CC(=O)N2[C@H](C(=O)Nc3cncc(Br)n3)C[C@@]3(C)C[C@@H]23)c2c(C)cc(-c3cnc(CO)nc3)cc12", "note": "[Compound 77, (1R,3S,5R)-2-(2-(3-acetyl-5-(2-(hydroxymethyl)pyrimidin-5-yl)-7-methyl-1H-indol-1-yl)acetyl)-N-(6-bromopyrazin-2-yl)-5-methyl-2-azabicyclo[3.1.0]hexane-3-carboxamide]", "IC50": "< 1"}, {"smiles": "CC(=O)c1nn(CC(=O)N2[C@H](C(=O)N[C@@H](C)C(F)(F)F)C[C@@]3(C)C[C@@H]23)c2c(C)cc(-c3cnc(C)nc3)cc12", "note": "[Compound 153, (1R,3S,5R)-2-{2-[3-acetyl-7-methyl-5-(2-methylpyrimidin-5-yl)indazol-1-yl]acetyl}-5-methyl-N-[(2S)-1,1,1-trifluoropropan-2-yl]-2-azabicyclo[3.1.0]hexane-3-carboxamide]", "IC50": "< 1"}, {"smiles": "CC(=O)c1nn(CC(=O)N2[C@H](C(=O)N[C@H](C)CC3CC3)C[C@@]3(C)C[C@@H]23)c2c(C)cc(-c3cnc(C)nc3)cc12", "note": "[Compound 133, (1R,3S,5R)-2-{2-[3-acetyl-7-methyl-5-(2-methylpyrimidin-5-yl)indazol-1-yl]acetyl}-N-[(2R)-1-cyclopropylpropan-2-yl]-5-methyl-2-azabicyclo[3.1.0]hexane-3-carboxamide]", "IC50": "< 1"}, {"smiles": "CC(=O)c1nn(CC(=O)N2[C@H](C(=O)Nc3nc(Br)c(F)cc3C)C[C@@]3(C)C[C@@H]23)c2c(C)cc(-c3cnc(CO)cn3)cc12", "note": "[Compound 131, (1R,3S,5R)-2-(2-(3-acetyl-5-(5-(hydroxymethyl)pyrazin-2-yl)-7-methyl-1H-indazol-1-yl)acetyl)-N-(6-bromo-5-fluoro-3-methylpyridin-2-yl)-5-methyl-2-azabicyclo[3.1.0]hexane-3-carboxamide]", "IC50": "< 1"}, {"smiles": "CC(=O)c1nn(CC(=O)N2[C@H]3CC[C@H](C3)[C@H]2C(=O)Nc2nc(C(F)(F)F)ccc2C)c2c(C)cc(-c3cncc(C4(C(=O)O)CC4)c3)cc12", "note": "[Compound 128, 1-(5-(3-Acetyl-7-methyl-1-(2-((1S,3S,4R)-3-((3-methyl-6-(trifluoromethyl)pyridin-2-yl)carbamoyl)-2-azabicyclo[2.2.1]heptan-2-yl)-2-oxoethyl)-1H-indazol-5-yl)pyridin-3-yl)cyclopropane-1-carboxylic acid]", "IC50": "< 1"}, {"smiles": "CC(=O)c1nn(CC(=O)N2[C@H](C(=O)Nc3cncc(Br)n3)C[C@@]3(C)C[C@@H]23)c2ccc(-c3cnc(CO)nc3)cc12", "note": "[Compound 64, (1R,3S,5R)-2-(2-(3-acetyl-5-(2-(hydroxymethyl)pyrimidin-5-yl)-1H-indazol-1-yl)acetyl)-N-(6-bromopyrazin-2-yl)-5-methyl-2-azabicyclo[3.1.0]hexane-3-carboxamide]", "IC50": "< 1"}]}]}
